The values that follow come from ChEMBL document CHEMBL3132845, “Design and discovery of 4-anilinoquinazoline ureas as multikinase inhibitors targeting BRAF, VEGFR-2 and EGFR” (Medchemcomm, 2013).

Test [1] deals with Serine/threonine-protein kinase B-raf (Homo sapiens, UniProt P15056, V600E). The test can be described thus: Inhibition of BRAF V600E mutant (unknown origin) after 1 hr by LanthaScreen assay.
The target of test [2] is Epidermal growth factor receptor (Homo sapiens, UniProt P00533). The test can be described thus: Inhibition of EGFR (unknown origin) after 1 hr by Caliper mobility shift assay.
Sequence of Epidermal growth factor receptor (P00533 whole entry): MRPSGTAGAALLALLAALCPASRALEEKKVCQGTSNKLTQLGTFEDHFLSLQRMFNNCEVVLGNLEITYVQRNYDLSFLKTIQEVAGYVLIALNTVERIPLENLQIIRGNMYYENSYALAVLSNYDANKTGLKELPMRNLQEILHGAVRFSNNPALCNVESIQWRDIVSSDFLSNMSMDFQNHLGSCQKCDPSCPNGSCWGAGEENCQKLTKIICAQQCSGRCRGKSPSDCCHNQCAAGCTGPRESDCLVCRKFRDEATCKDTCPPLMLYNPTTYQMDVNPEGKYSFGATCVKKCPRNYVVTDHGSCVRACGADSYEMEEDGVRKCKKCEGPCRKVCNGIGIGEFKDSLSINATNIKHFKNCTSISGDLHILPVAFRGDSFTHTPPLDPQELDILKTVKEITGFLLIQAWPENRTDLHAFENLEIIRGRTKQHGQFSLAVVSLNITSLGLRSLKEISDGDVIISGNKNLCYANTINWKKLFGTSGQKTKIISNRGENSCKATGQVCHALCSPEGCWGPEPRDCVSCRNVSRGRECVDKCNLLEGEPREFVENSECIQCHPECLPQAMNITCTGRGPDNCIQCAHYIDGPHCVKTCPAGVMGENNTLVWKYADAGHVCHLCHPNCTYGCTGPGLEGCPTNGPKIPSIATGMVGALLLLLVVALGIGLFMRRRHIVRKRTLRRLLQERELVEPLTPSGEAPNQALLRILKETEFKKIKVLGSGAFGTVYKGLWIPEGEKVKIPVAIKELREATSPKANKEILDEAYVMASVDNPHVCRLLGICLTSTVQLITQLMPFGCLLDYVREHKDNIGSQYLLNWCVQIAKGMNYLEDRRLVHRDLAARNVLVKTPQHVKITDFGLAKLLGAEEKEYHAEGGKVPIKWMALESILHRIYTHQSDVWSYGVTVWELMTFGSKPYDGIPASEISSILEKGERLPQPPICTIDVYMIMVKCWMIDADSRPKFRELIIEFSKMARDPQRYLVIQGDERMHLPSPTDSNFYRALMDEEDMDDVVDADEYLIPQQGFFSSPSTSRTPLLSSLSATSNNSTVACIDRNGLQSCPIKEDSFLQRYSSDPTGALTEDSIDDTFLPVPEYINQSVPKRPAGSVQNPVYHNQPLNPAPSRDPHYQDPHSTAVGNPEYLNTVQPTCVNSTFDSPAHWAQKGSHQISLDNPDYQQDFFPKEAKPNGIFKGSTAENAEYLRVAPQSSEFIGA
Test [3] deals with T1, Vascular endothelial growth factor receptor 2 (Homo sapiens, UniProt P35968). Briefly: Inhibition of VEGFR2 (unknown origin) after 1 hr by Caliper mobility shift assay.
T1 sequence (P35968 whole entry): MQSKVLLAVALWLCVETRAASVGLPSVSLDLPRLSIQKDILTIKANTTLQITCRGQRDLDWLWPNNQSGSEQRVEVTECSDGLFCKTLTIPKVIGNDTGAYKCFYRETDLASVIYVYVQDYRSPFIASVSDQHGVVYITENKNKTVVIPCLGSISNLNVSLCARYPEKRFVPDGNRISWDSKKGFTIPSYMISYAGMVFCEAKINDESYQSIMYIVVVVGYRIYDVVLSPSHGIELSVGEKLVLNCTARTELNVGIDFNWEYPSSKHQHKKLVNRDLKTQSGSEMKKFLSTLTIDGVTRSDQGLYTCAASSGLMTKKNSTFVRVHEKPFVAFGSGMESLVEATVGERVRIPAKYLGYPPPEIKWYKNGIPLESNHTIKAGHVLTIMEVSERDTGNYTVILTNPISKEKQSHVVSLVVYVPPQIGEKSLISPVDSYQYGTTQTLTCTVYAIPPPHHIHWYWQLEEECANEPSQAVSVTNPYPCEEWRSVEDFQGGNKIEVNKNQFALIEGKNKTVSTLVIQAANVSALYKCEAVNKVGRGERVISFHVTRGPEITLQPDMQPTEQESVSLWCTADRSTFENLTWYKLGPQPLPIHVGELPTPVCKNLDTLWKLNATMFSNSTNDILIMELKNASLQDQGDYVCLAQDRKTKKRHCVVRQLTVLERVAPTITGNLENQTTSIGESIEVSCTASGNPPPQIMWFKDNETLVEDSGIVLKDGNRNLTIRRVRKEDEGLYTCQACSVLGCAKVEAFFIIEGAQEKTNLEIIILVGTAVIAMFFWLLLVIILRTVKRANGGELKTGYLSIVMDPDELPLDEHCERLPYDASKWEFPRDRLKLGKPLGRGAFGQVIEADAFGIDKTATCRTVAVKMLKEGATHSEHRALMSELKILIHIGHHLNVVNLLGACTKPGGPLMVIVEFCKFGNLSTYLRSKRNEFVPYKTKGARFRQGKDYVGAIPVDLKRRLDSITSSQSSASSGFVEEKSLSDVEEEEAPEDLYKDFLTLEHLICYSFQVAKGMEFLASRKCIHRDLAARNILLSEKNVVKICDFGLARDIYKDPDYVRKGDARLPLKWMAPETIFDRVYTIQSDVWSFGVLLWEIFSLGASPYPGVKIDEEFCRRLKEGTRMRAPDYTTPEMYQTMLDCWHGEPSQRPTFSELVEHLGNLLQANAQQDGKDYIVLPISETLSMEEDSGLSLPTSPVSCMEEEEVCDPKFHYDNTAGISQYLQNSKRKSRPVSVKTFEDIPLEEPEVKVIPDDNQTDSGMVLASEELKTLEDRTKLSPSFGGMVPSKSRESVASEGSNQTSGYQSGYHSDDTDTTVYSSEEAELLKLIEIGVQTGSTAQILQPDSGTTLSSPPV
The target in test [4] is T2, Serine/threonine-protein kinase B-raf (Homo sapiens, UniProt P15056). The test can be described thus: Inhibition of BRAF (unknown origin) after 1 hr by LanthaScreen assay. (In general: TR-FRET usually uses a lanthanide donor and a delayed reading to cut background.)
T2 sequence (P15056 whole entry): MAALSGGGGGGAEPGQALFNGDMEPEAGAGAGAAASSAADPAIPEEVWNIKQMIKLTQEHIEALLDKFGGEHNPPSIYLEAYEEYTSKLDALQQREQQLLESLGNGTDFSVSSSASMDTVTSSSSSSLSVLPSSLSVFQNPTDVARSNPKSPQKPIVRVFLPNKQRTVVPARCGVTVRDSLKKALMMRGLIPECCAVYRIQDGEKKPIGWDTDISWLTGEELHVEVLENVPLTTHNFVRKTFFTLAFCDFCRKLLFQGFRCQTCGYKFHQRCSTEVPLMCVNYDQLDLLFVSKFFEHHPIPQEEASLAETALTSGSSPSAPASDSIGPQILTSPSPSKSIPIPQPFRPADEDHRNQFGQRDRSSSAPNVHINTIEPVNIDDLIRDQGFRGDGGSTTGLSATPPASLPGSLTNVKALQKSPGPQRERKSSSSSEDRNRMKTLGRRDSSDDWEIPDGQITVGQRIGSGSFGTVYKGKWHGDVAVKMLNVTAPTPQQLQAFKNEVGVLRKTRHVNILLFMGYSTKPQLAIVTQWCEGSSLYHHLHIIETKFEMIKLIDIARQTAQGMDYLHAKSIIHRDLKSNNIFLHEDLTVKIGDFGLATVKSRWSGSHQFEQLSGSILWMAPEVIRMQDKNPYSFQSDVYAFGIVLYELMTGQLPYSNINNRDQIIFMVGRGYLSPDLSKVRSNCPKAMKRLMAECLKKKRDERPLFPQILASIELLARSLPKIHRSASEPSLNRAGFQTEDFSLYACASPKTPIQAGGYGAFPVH
In test [5] the target is T1, Vascular endothelial growth factor receptor 2. Briefly: Ratio of sorafenib IC50 to compound IC50 for VEGFR2 (unknown origin) after 1 hr by Caliper mobility shift assay.
The target of test [6] is T2, Serine/threonine-protein kinase B-raf. Briefly: Ratio of sorafenib IC50 to compound IC50 for BRAF (unknown origin) after 1 hr by LanthaScreen assay.

Some results are limits rather than exact numbers.

Sequence of Serine/threonine-protein kinase B-raf (Homo sapiens, UniProt P15056, V600E) (P15056 2-766 V600E limits assumed): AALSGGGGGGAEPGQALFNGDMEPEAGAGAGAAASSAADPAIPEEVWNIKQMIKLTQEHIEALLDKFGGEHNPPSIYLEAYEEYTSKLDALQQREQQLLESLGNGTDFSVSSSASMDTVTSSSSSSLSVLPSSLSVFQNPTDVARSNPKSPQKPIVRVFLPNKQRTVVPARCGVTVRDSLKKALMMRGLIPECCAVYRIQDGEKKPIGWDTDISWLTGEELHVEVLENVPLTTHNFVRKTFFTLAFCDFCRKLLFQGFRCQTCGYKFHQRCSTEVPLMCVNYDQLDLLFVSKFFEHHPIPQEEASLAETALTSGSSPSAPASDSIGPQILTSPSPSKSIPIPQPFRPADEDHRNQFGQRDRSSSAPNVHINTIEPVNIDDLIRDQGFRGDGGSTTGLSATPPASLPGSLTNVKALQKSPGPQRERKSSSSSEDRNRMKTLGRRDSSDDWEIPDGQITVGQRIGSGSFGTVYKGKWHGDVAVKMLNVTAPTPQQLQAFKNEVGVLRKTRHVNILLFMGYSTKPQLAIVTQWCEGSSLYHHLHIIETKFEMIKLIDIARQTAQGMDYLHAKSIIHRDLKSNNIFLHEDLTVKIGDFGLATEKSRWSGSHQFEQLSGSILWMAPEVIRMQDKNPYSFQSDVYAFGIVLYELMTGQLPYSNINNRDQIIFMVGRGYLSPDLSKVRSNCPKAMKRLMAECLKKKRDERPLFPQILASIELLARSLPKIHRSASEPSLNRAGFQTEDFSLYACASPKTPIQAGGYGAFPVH

By IC50 is commonly meant the midpoint of a concentration-inhibition curve. For `O=C(Nc1cccc(Nc2ncnc3cc(OCCCN4CCN(CCO)CC4)ccc23)c1)Nc1ccc(Cl)c(C(F)(F)F)c1`, the IC50 was determined as 58 nM in test [1], 99 nM in test [2], 75 nM in test [3] and 101 nM in test [4].
In the case of `COc1cc2ncnc(Nc3cccc(NC(=O)Nc4cccc(C)c4)c3)c2cc1OCCCN1CCOCC1`, the IC50 in test [1] amounted to 54 nM; in test [2], 2350 nM; in test [3] it was 8570 nM; in test [4], 119 nM.
Regarding `COc1cc2ncnc(Nc3ccc(NC(=O)Nc4ccc(Cl)c(C(F)(F)F)c4)cc3)c2cc1OCCCN1CCOCC1`, the IC50 turned out to be 371 nM in test [1], 285 nM in test [2], 17 nM in test [3] and 539 nM in test [4]. Besides, the Ratio IC50 in test [5] was 3.
For `COc1cc2ncnc(Nc3cccc(NC(=O)Nc4ccc(Cl)c(C(F)(F)F)c4)c3)c2cc1OCCCN1CCOCC1`, the IC50 in test [1] is 75 nM; in test [2] it was 82 nM; in test [3], 213 nM; in test [4] it was 195 nM.
On the same counts, the results for `CCN(CCO)CCCOc1ccc2c(Nc3cccc(NC(=O)Nc4ccc(Cl)c(C(F)(F)F)c4)c3)ncnc2c1` are 53 nM, 188 nM, 91 nM and 112 nM.
On to `COc1cc2ncnc(Nc3cccc(NC(=O)Nc4ccc(F)c(Cl)c4)c3)c2cc1OCCCN1CCOCC1`, for which the IC50 in test [1] was 55 nM; in test [2], more than 10000 nM; in test [3], more than 10000 nM; in test [4] it was 31 nM. For the same compound, the Ratio IC50 in test [6] is 4.
For the compound `O=C(Nc1cccc(Nc2ncnc3cc(OCCCN4CCOCC4)ccc23)c1)Nc1ccc(F)c(Cl)c1`, the IC50 in test [1] was 42 nM; in test [2], 3320 nM; in test [3], 2170 nM; in test [4], 72 nM.
`CCN(CCO)CCCOc1ccc2c(Nc3cccc(NC(=O)Nc4ccc(F)c(Cl)c4)c3)ncnc2c1`: the IC50 in test [1] was determined as 13 nM; in test [2] it was 165 nM; in test [3] it was 95 nM; in test [4], 22 nM. In addition, the Ratio IC50 in test [6] is 5.
